According to article PMC12442245, “Activity Analysis of the P2X Receptor Antagonist PPADS against Signal Transducer and Activator of Transcription Proteins” (Chembiochem, 2025):

What was measured:
STAT6 = biological target: T1, STAT6 (Homo sapiens, UniProt P42226); experiment: Competitive fluorescence polarization (FP) assay, STAT6; type: binding; conditions: no reducing agent, 1 h
T1 sequence (P42226 1-847): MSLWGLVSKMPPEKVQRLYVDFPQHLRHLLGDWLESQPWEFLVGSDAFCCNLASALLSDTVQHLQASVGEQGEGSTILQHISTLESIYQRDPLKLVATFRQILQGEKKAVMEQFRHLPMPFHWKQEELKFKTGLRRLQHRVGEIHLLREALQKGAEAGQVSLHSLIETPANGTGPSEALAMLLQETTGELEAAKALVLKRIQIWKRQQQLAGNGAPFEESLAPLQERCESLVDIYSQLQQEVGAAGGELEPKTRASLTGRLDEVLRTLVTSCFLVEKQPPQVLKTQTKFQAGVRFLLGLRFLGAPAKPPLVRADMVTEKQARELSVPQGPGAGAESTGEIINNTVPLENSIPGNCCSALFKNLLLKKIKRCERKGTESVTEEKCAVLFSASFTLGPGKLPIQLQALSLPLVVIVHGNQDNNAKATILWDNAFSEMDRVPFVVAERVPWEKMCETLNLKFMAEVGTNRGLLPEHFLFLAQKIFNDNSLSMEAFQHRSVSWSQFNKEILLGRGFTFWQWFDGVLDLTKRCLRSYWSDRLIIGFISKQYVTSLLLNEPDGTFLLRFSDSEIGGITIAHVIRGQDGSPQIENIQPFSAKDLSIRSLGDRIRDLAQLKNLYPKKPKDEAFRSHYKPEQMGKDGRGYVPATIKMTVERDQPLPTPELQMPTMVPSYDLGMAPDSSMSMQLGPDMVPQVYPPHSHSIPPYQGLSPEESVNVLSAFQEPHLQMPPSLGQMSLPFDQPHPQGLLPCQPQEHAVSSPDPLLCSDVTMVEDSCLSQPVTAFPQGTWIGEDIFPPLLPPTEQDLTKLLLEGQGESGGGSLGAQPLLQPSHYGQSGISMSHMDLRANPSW
Experimental: Screening of chemical libraries […]
PPADS was purchased […]
from Sigma-Aldrich, and iso-PPADS from Bio-Techne.
(§1) Fluorescence polarization assays
(§2) Competitive fluorescence polarization (FP) assays for STAT1,[2] STAT3,[3] STAT4,[4] STAT5a,[5] STAT5b[6] and STAT6[1] were performed as previously described. Briefly, peptide binding to proteins was analyzed using the following carboxyfluorescein (CF) -labelled pepti des at a concentration of 10 nM: STAT1: 5-CF-GpYDKPHVL-OH, STAT3: 5-CF-GpYLPQTV -NH2, STAT4: 5-CF-GpYLPQNID-OH, STAT5a and STAT5b: 5-CF-GpYLVLDKW-OH, STAT6: 5- […]
(§3) CFGp[…]-OH. Proteins were used at a final concentration representing the approximate Kd value for binding of the corresponding peptide to the protein, namely 65 nM for STAT1, 65 nM for STAT3, 35 nM for STAT4, 125 nM for STAT5a, 65 nM for STAT5b and 75 nM for STAT6. Assays were carried out in buffer containing 10 mM Tris/HCl, 50 mM NaCl, 1 mM EDTA, 0.1% NP-40 substitute and 2% DMSO, with 1 mM reducing agent where applicable, at pH 8.0. Proteins were incubated with compound for 1 h at room temperature before adding peptide and incubating for a further 1 h. FP was measured using an Infinite F500 plate reader (Tecan) and measurements were converted into percent inhibition according to […]

STAT1 = biological target: T2, STAT1 (Homo sapiens, UniProt P42224); experiment: Competitive fluorescence polarization (FP) assay, STAT1; type: binding
T2 sequence (P42224 1-750): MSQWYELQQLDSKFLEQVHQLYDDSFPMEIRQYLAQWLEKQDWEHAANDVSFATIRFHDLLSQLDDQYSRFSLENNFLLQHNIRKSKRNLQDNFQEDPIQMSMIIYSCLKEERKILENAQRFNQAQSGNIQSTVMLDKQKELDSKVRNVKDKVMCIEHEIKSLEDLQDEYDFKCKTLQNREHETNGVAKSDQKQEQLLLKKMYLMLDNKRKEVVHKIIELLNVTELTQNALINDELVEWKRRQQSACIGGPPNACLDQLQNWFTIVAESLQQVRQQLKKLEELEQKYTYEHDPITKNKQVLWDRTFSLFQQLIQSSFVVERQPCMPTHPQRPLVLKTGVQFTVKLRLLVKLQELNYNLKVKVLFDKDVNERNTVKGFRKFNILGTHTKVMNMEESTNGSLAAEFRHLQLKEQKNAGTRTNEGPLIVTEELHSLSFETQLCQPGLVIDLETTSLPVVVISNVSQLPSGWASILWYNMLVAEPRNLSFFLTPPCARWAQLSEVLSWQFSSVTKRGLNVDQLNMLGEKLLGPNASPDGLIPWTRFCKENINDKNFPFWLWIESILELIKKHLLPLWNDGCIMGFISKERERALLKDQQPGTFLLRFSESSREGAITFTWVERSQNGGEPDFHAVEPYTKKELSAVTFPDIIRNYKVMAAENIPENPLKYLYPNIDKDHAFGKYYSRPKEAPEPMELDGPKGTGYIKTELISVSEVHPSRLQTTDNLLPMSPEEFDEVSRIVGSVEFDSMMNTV
Excerpt: Screening of chemical libraries
Screening of chemical libraries comprising approximately 5000 known bioactive compounds in fluorescence polarization-based assays against phosphorylation-dependent protein-protein interaction domains, including STAT proteins, has been described.[1] PPADS was purchased from Sigma-Aldrich, and iso-PPADS from Bio-Techne.
as §1, §2
as §3, with “Proteins were incubated with compound for 1 h at room temperature before adding peptide and incubating for a further 1 h.” left out

SMILES: Cc1nc(/N=N/c2ccc(S(=O)(=O)O)cc2S(=O)(=O)O)c(COP(=O)(O)O)c(C=O)c1O [PPADS, pyridoxalphosphate‐6‐azophenyl‐2',4'‐disulfonic acid]
- IC50 (STAT6): 20.1 ± 4.6 µM
- IC50 (STAT1; no reducing agent, 1 h): 87.4 ± 6.6 µM

SMILES: Cc1nc(/N=N/c2cc(S(=O)(=O)O)ccc2S(=O)(=O)O)c(COP(=O)(O)O)c(C=O)c1O [iso‐PPADS]
- IC50 (STAT6): 66 ± 12 µM
- inhibition at 100 µM (STAT1; at 100 μM, the highest concentration tested): 41 ± 0.4%
